Columns and labels:
[1] = test system: rabbit or monkey LDL; test: Inhibition of Copper Ion Mediated Oxidation of Low Density Lipoprotein (in vitro); type: biochemical; details: Cu^+2, rabbit or monkey LDL, 37° C., 90 minutes, absorbance at 532 nm; non-linear regression log [I] vs. % inhibition
Protocol: In this in vitro assay, the inhibition of Cu^+2 mediated oxidation of rabbit or monkey LDL by an invention compound is determined spectrophotometrically. Oxidation of LDL results in the formation of LDL-diene which absorbs light at 532 nm. Inhibition of oxidation of LDL leads to a decrease in absorbance at 532 nm.
Rabbit or monkey LDL is prepared according to the procedures of Havel, Eder and Gragdon, "The Distribution and Chemical Composition of Ultracentrifugally Separated Lipoproteins in Human Serum,: J. Clin. Invest. 34, 1345-1353 (1955) and Parhtasarathy, Wieland and Steriberg, "A Role for Endothelial Cell Lipoxygenase in the Oxidative Modification of Low Density Lipoprotein, " Proc. Natl. Acad. Sci. USA 86, 1046-1050 (1989). Test compound solutions are prepared by dissolving the invention compounds in ethanol at concentrations up to 248 μM. The medium used is Dulbecco's phosphate buffered saline containing 0.5 mg/ml bovine serum albumin. For standards, 0 to 10 μl of an aqueous solution of 1,1,3,3-tetraethoxypropane (1 μmol/ml H2 O) in 4.1 ml of medium is used.
Test compound solution (100 μl) is added to 4 ml of medium in incubation tubes. To each tube is added 10 μl of LDL solution and 25 μl of aqueous copper sulfate solution (1.32 mg/ml H2 O). The tubes are incubated at 37° C. for 90 minutes and the oxidation reaction quenched by addition of 1 ml of thiobarbituric acid solution (0.67% in 50% acetic acid). The tubes are heated at 90° C. for 1 hour, then chilled in an ice bath and the chromophore extracted into 2 ml of n-butanol. Absorbence is read at 532 nm and the results are reported as nmols of malondialdehyde equivalents.
Significant differences (p<0.05) are determined by the Dunnett T-test or by the Student-Newman Keuls Test for significant differences between means. The assay is conducted using several concentrations [I] of the inhibitor test compounds. The LDL solution concentrations at different experiments were either 1.5 mg/ml, 2.5 mg/ml or 10.3 mg/ml. The IC50 is determined by non-linear regression, plotting log [I] vs. % inhibition. (Reference: K. Yagi, Biochemical Medicine 15, 212-216 (1976)).

[2] = test system: LDL; details: cited from earlier work
[3] = test system: LDL; details: cited from earlier work; remark: listed apart in the source
[4] = test system: WHHL rabbits; details: cited from earlier work

COC(=O)Cc1nc(-c2cc(C(C)(C)C)c(O)c(C(C)(C)C)c2)oc1C [Example 1, [2-(3,5-di-tert-butyl-4-hydroxyphenyl)-5-methyloxazol-4-yl]-acetic acid methyl ester]
IC50 [1]: 70 nM

Cc1oc(-c2cc(C(C)(C)C)c(O)c(C(C)(C)C)c2)nc1CC(=O)O [Example 2, [2-(3,5-di-tert-butyl-4-hydroxyphenyl)-5-methyloxazol-4-yl]-acetic acid]
IC50 [1]: 160 nM

CCOC(=O)Cc1nc(-c2cc(C(C)(C)C)c(O)c(C(C)(C)C)c2)oc1C [Example 3, [2-(3,5-di-tert-butyl-4-hydroxyphenyl)-5-methyloxazol-4-yl]-acetic acid ethyl ester]
IC50 [1]: 270 nM

COC(=O)Cc1coc(-c2cc(C(C)(C)C)c(O)c(C(C)(C)C)c2)n1 [Example 4, [2-(3,5-di-tert-butyl-4-hydroxyphenyl)-oxazol-4-yl]-acetic acid methyl ester]
IC50 [1]: 250 nM

COC(=O)NC(=O)Cc1nc(-c2cc(C(C)(C)C)c(O)c(C(C)(C)C)c2)oc1C [Example 5, {2-[2-(3,5-di-tert-butyl-4-hydroxyphenyl)-5-methyloxazol-4-yl]acetyl}carbamic acid methyl ester]
IC50 [1]: 230 nM

CC(C)(Sc1cc(C(C)(C)C)c(O)c(C(C)(C)C)c1)Sc1cc(C(C)(C)C)c(O)c(C(C)(C)C)c1 [probucol]
IC50 [1]: 270 nM
inhibition of Cu^+2 mediated oxidative modification of LDL (in words) [2]: inhibits both cell mediated and Cu^+2 mediated oxidative modification of LDL
inhibition of cell mediated oxidative modification of LDL (in words) [3]: inhibits both cell mediated and Cu^+2 mediated oxidative modification of LDL
inhibition of the formation of atherosclerotic lesions (in words) [4]: inhibit the formation of atherosclerotic lesions in WHHL rabbits
